Broadly, the IC50 is the concentration at which inhibition is half-maximal.

The text below walks through data of patent publication US20060194807A1, “Di-aryl substituted pyrazole modulators of metabotropic glutamate receptor-5” (priority 2003, published 2006).

SMILES strings stand for the structures. Structures can show the parent of a compound that is named as a salt.

The target of this assay is T1, hmGluR5a receptor (Homo sapiens, UniProt P41594).
T1 construct: expressed in transfected cells; host or cells: mouse fibroblast Ltk- cells (hmGluR5a/L38-20 cell line)
Briefly: Calcium flux assay (fura-2, glutamate-evoked [Ca2+]i). The class given is cell-based. The settings on record: hmGluR5a/L38-20 mouse fibroblast Ltk- cells; 10 μM glutamate (EC80); read-out: mGluR5 inhibitory activity, IC50. As for the experimental part: The compounds of this invention were tested against the hmGluR5a receptor stably expressed in mouse fibroblast Ltk-cells (the hmGluR5a/L38-20 cell line) and activity was detected by changes in [Ca^++]i, measured using the fluorescent Ca^++-sensitive dye, fura-2. InsP assays were performed in mouse fibroblast Ltk^− cells (LM5a cell line) stably expressing hmGluR5a. The assays described in International Patent Publication WO 0116121 can be used.
The activity of compounds was examined against the hmGluR5a receptor stably expressed in mouse fibroblast Ltk− cells (the hmGluR5a/L38 cell line). See generally Daggett et al., Neuropharmacology 34:871-886 (1995). Receptor activity was detected by changes in intracellular calcium ([Ca^2+]i, measured using the fluorescent calcium-sensitive dye, fura-2. The hmGluR5a/L38-20 cells were plated onto 96-well plates, and loaded with 3 µM fura-2 for 1 h. Unincorporated dye was washed from the cells, and the cell plate was transferred to a 96-channel fluorimeter (SIBIA-SAIC, La Jolla, Calif.) which is integrated into a fully automated plate handling and liquid delivery system. Cells were excited at 350 and 385 nm with a xenon source combined with optical filters. Emitted light was collected from the sample through a dichroic mirror and a 510 nm interference filter and directed into a cooled CCD camera (Princeton Instruments). Image pairs were captured approximately every is, and ratio images were generated after background subtraction. After a basal reading of 20s, an EC80 concentration of glutamate (10 μM) was added to the well, and the response evaluated for another 60s. The glutamate-evoked increase in [Ca′]i in the presence of the screening compound was compared to the response of glutamate alone (the positive control).

T1 sequence (P41594 21-1180 isoform P41594-2 limits assumed): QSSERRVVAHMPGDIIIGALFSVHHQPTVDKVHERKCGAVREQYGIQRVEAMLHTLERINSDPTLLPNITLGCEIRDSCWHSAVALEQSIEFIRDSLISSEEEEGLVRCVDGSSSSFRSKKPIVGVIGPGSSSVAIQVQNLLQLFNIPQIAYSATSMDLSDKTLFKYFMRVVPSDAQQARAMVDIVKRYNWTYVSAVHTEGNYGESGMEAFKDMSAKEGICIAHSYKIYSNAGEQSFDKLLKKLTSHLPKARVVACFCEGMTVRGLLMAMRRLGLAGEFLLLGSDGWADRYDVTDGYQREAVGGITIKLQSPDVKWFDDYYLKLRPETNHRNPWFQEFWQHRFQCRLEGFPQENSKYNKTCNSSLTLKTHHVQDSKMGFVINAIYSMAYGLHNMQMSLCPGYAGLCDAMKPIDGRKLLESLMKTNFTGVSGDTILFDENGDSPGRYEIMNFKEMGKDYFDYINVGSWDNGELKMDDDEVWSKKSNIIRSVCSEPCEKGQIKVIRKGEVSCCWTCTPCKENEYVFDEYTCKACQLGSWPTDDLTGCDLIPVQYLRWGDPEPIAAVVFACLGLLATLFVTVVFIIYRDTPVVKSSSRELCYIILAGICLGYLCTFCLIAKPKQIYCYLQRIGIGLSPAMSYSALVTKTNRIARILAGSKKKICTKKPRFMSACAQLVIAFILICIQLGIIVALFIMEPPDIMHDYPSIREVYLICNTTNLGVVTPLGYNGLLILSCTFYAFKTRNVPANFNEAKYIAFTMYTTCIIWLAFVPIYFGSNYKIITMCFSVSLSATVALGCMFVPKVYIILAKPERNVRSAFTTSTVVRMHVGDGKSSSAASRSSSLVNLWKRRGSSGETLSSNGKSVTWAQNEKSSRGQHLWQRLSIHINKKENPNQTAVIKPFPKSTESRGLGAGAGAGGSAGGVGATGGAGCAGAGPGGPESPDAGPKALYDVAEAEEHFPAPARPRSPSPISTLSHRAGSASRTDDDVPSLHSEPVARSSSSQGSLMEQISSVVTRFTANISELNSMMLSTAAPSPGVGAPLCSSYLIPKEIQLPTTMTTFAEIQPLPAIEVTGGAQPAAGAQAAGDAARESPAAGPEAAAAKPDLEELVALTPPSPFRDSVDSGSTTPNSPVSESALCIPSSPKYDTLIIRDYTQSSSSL

Take `Clc1cc(-c2cccnc2)cc(-n2cc(-c3ccccn3)cn2)c1` [Example 1, 2-[1-(3-chloro-5-pyridin-3-ylphenyl)-1H-pyrazol-4-yl]pyridine]: the half-inhibitory concentration (IC50) is below 2 µM.

With `Fc1cc(-c2nn[nH]n2)cc(-n2ccc(-c3ccccn3)n2)c1` [Example 2, 2-{1-[3-fluoro-5-(2H-tetraazol-5-yl)phenyl]-1H-pyrazol-3-yl}pyridine], the 50% inhibitory concentration (IC50) was below 2 µM.

For `Clc1cc(-c2cccnc2)cc(-c2cnn(-c3ccccn3)c2)c1` [Example 3, 2-[4-(3-chloro-5-pyridin-3-ylphenyl)-1H-pyrazol-1-yl]pyridine], the IC50 was below 2 µM.

In the case of `c1ccc(-c2cnn(-c3cccc(-c4cccnc4)c3)c2)nc1` [Example 4], the half-inhibitory concentration (IC50) was below 2 µM.

In the case of `c1ccc(-c2cccc(-n3cc(-c4ccccn4)cn3)c2)nc1` [Example 5], the IC50 is below 2 µM.

As to `c1ccc(-c2cccc(-n3cc(-c4ccccn4)cn3)c2)cc1` [Example 6], the IC50 is below 2 µM.

On to `COc1cc(-c2cnn(-c3ccccn3)c2)ccc1-c1ccccn1` [Example 7], for which the 50% inhibitory concentration (IC50) was below 2 µM.

Regarding `c1ccc(-c2cnn(-c3cccc(-c4cccnc4)n3)c2)nc1` [Example 8, 6-(4-pyridin-2-yl-1H-pyrazol-1-yl)-2,3′-bipyridine], the IC50 is above 2 µM.

On to `c1ccc(-c2ccc(-n3ccc(-c4ccccn4)n3)cc2)cc1` [Example 9, 2-(1-biphenyl-4-yl-1H-pyrazol-3-yl)-pyridine hydrochloride], for which the IC50 was above 2 µM.

For the molecule `c1ccc(-c2cnn(-c3cccc(-c4ccncc4)c3)c2)nc1` [Example 10], the IC50 is above 2 µM.

On to `c1ccc(-c2ccc(-n3cc(-c4ccccn4)cn3)cc2)nc1` [Example 11], for which the 50% inhibitory concentration (IC50) is above 2 µM.

Consider `c1ccc(-c2cnn(-c3ccc(-c4cccnc4)cc3)c2)nc1` [Example 12], for which the half-inhibitory concentration (IC50) was above 2 µM.

For `Cc1ccncc1-c1cc(F)cc(-c2cnn(-c3ccccn3)c2)c1` [Example 13], the 50% inhibitory concentration (IC50) is above 2 µM.

Take `Clc1cc(-c2cnn(-c3ccccn3)c2)cc(-n2ccc3ccncc32)c1` [Example 14]: the IC50 is above 2 µM.

In the case of `Fc1cc(-c2cnn(-c3ccccn3)c2)ccc1-c1ccccn1` [Example 15], the IC50 is above 2 µM.

In the case of `c1ccc(-c2ccc(-n3cc(-c4ccccn4)cn3)cc2)cc1` [Example 16], the concentration for half-maximal inhibition (IC50) is above 2 µM.

In the case of `c1ccc(-c2ccccc2-n2cc(-c3ccccn3)cn2)cc1` [Example 17], the IC50 is above 2 µM.

Take `c1ccc(-c2ccccc2-n2cc(-c3ccncn3)cn2)cc1` [Example 18]: the concentration for half-maximal inhibition (IC50) is above 2 µM.

As to `c1ccc(-c2cccc(-n3cc(-c4ccncn4)cn3)c2)cc1` [Example 19], the IC50 was above 2 µM.

For the molecule `c1ccc(-c2cnn(-c3ccc(C4CCCCC4)cc3)c2)nc1` [Example 20], the concentration for half-maximal inhibition (IC50) is above 2 µM.

For the molecule `c1cc(-c2cnn(-c3ccc(C4CCCCC4)cc3)c2)ncn1` [Example 21], the IC50 is above 2 µM.

With `c1ccc2nc(-c3cnn(-c4ccc(C5CCCCC5)cc4)c3)ccc2c1` [Example 22], the IC50 is above 2 µM.

With `c1ccc2nc(-c3cnn(-c4ccc(C5CCCCC5)cc4)c3)cnc2c1` [Example 23], the IC50 is above 2 µM.

Consider `Cc1cc(-c2cnn(-c3ccc(C4CCCCC4)cc3)c2)nc2ccccc12` [Example 24], for which the IC50 was above 2 µM.

In the case of `c1ccc(-c2ccc(-n3cc(-c4ccncn4)cn3)cc2)cc1` [Example 25], the IC50 is above 2 µM.

As to `Cc1cc(-c2cnn(-c3ccc(N4CCNC4=O)cc3)c2)nc2ccccc12` [Example 26], the half-maximal inhibitory concentration (IC50) was above 2 µM.

In the case of `CN1CCN(c2ccc(-n3cc(-c4ccncn4)cn3)cc2)C1=O` [Example 27], the half-inhibitory concentration (IC50) was above 2 µM.

As for `CN1CCN(c2ccc(-n3cc(-c4ccc5ccccc5n4)cn3)cc2)C1=O` [Example 28], the IC50 is above 2 µM.

As for `CN1CCN(c2ccc(-n3cc(-c4cnc5ccccc5n4)cn3)cc2)C1=O` [Example 29], the IC50 is above 2 µM.

For the molecule `Cc1cc(-c2cnn(-c3ccc(N4CCN(C)C4=O)cc3)c2)nc2ccccc12` [Example 30], the half-inhibitory concentration (IC50) is above 2 µM.

`c1ccc(-c2cccc(-n3cc(-c4ccccn4)cn3)c2)cc1` [Example 31]: the concentration for half-maximal inhibition (IC50) is above 2 µM.

On to `c1ccc(-c2cccc(-c3cnn(-c4ccccn4)c3)c2)cc1` [Example 33], for which the IC50 was above 2 µM.
